EPA's ToxValDB 9.5 (doi:10.2903/j.efsa.2015.3943)

Legend:
Canidae = settings: subchronic; duration: 90 days; oral; Dog Other
Oryctolagus sp. = settings: developmental; development
Rattus norvegicus = settings: oral

In the case of `CCCCOC(=O)[C@@H](C)Oc1ccc(Oc2ccc(C#N)cc2F)cc1` [Cyhalofop-butyl], the LD50 (Anas platyrhynchos; acute, oral, unspecified, mortality) was over 2250 mg/kg-day, the NOEC (Anas platyrhynchos; reproductive, reproduction) was 80 mg/kg-day and the LC50 (Anas platyrhynchos; short-term, oral, feed, mortality) was over 5620 mg/kg. For the same molecule, the NOAEL (Mus musculus; chronic, duration: 78 weeks) was 0.8 mg/kg-day, the NOAEL (Mus musculus; subchronic, duration: 90 days, oral) was 3 mg/kg-day and the NOAEL (Canidae) was 3 mg/kg-day. The LC50 (Colinus virginianus; acute, oral, diet, mortality) was over 5620 mg/kg, the LD50 (Colinus virginianus; acute, oral, mortality) was over 2250 mg/kg-day and the NOEC (Colinus virginianus; reproduction developmental, reproduction) was 80 mg/kg-day. It also gave an NOAEL (Oryctolagus sp.) of 40 mg/kg-day, an LD50 (Rattus norvegicus; acute, mortality) of over 5000 mg/kg-day and an NOAEL (Rattus norvegicus; subchronic, duration: 90 days) of 3 mg/kg-day.
